Data taken from patent publication US20250206751A1, “HETEROCYCLIC COMPOUND FOR INDUCING DEGRADATION OF G12D MUTANT KRAS PROTEIN” (Astellas Pharma Inc., priority 2022, published 2025).

Assays:
KRAS G12D protein = target: T1, KRAS G12D protein (Homo sapiens, UniProt P01116, G12D); assay: KRAS degradation activity by Cell ELISA in AsPC-1 (Test Example 1); format: cell-based; conditions: AsPC-1 cells, cultured overnight with compound, corrected with β-actin, read-out: DC50 (50% degradation concentration of the amounts of KRAS)
T1 construct: host or cells: AsPC-1
Procedure, shortened: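 AsPC-1 cells (KRAS G12D), 2.0×10^4/well, treated overnight with compound (10 points, 10 μM–0.3 nM final) in RPMI 1640/10% FBS. Fixed cells immunostained for G12D-specific Ras and β-actin, with near-IR fluorescence read. Ras/actin ratio scaled DMSO = 0% and actin-only = 100%, and DC50 fitted by Sigmoid-Emax regression.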

[1] = tested on: phosphorylation of threonine 202 (Thr202) and tyrosine 204 (Tyr204) of ERK; assay: ERK phosphorylation inhibitory effect by Cell ELISA in AsPC-1 (Test Example 2); format: cell-based, human; conditions: cultured overnight with compound, 1 μM trametinib taken as 0%
Procedure, shortened: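 AsPC-1 cells (G12D KRAS) treated overnight with compound (10 points, 10 μM to 0.3 nM final), then glyoxal-fixed and immunostained for phospho-ERK with a fluorescent secondary read at 800 nm. IC50 by Sigmoid-Emax regression, with DMSO as 100% and 1 μM trametinib as 0%.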

[2] = tested on: human G12D mutant KRAS-positive pancreatic cancer line AsPC-1; assay: Non-anchorage-dependent cell growth inhibition, spheroid 3D cell culture (Test Example 3); format: cell-based; conditions: AsPC-1 spheroid 3D culture, 6 days, CellTiter Glo 2.0
Procedure, shortened: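 AsPC-1 spheroids, 5×10^2 cells per well on low-adhesion round-bottom plates in RPMI 1640/10% FBS, dosed next day at 10 or 6 points spanning 10 μM to 0.3 nM final for 6 days at 37° C., 5% CO2. Viability by CellTiter Glo 2.0 luminescence; IC50 by Sigmoid-Emax regression, DMSO 100% and cell-free medium 0%.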

[3] = Homo sapiens, ASPC1, AsPC-1 cells

T1 sequence (P01116 1-188 isoform P01116-2 G12D): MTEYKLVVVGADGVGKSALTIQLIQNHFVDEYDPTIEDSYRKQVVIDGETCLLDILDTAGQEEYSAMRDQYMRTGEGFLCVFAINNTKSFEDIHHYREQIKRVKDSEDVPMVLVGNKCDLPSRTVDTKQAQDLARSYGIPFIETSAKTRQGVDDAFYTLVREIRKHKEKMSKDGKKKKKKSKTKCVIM

Structure (SMILES) | DC50 (KRAS G12D protein) | IC50 [1, 3] | IC50 ([2]; Homo sapiens, ASPC1, 144 h) | IC50 ([1]; AsPC-1 cells) | IC50 [2]
CO[C@H](C)COc1nc(N(C)[C@H]2CCNC2)c2cc(C3CC3)c(-c3c(C)c(F)cc4[nH]ncc34)c(OCc3ccc(-c4cn([C@H](C(=O)N5C[C@H](O)C[C@H]5C(=O)N[C@@H](CO)c5ccc(-c6scnc6C)cc5)C(C)C)nn4)cc3)c2n1 (atropisomer, axis not shown) [Example 16] | 0.026 µM | 0.016 µM | 0.014 µM |  | 
CO[C@@H](C)[C@H](C)Oc1nc(N(C)[C@H]2CCNC2)c2cc(C3CC3)c(-c3c(C)c(F)cc4[nH]ncc34)c(OCc3ccc(-c4cn([C@H](C(=O)N5C[C@H](O)C[C@H]5C(=O)N[C@@H](CO)c5ccc(-c6scnc6C)cc5)C(C)C)nn4)cc3)c2n1 (atropisomer, axis not shown) [Example 20] | 0.041 µM | 0.038 µM | 0.021 µM |  | 
Cc1ncsc1-c1ccc([C@H](CO)NC(=O)[C@@H]2C[C@@H](O)CN2C(=O)[C@H](C(C)C)n2cc(-c3ccc(COc4c(-c5c(C)c(F)cc6[nH]ncc56)c(C5CC5)cc5c(N(C)[C@H]6CCNC6)nc(OCCC(F)(F)F)nc45)cc3)nn2)cc1 (atropisomer, axis not shown) [Example 37] | 0.058 µM | 0.032 µM | 0.032 µM |  | 
Cc1ncsc1-c1ccc([C@H](CO)NC(=O)[C@@H]2C[C@@H](O)CN2C(=O)[C@H](C(C)C)n2cc(-c3ccc(COc4c(-c5c(C)c(F)cc6[nH]ncc56)c(C5CC5)cc5c(N(C)[C@H]6CCNC6)nc(OC[C@H]6CCN(C)C6)nc45)cc3)nn2)cc1 (atropisomer, axis not shown) [Example 18] | 0.508 µM | 0.1 µM | 0.073 µM |  | 
CO[C@@H](C)COc1nc(N(C)[C@H]2CCNC2)c2cc(C3CC3)c(-c3c(C)c(F)cc4[nH]ncc34)c(OCc3ccc(-c4cn([C@H](C(=O)N5C[C@H](O)C[C@H]5C(=O)N[C@@H](CO)c5ccc(-n6ccnc6C)cc5)C(C)C)nn4)cc3)c2n1 (atropisomer, axis not shown) [Example 21] | 0.033 µM | 0.047 µM | 0.053 µM |  | 
CO[C@@H](C)COc1nc(N(C)[C@H]2CCNC2)c2cc(C3CC3)c(-c3c(C)c(F)cc4[nH]ncc34)c(OCc3ccc(-c4cn([C@H](C(=O)N5C[C@H](O)C[C@H]5C(=O)N[C@@H](CO)c5ccc(-n6cncn6)cc5)C(C)C)nn4)cc3)c2n1 (atropisomer, axis not shown) [Example 40] | 0.047 µM | 0.007 µM | 0.006 µM |  | 
Cc1ncsc1-c1ccc([C@H](CO)NC(=O)[C@@H]2C[C@@H](O)CN2C(=O)[C@H](C(C)C)n2cc(-c3ccc(COc4c(-c5c(C)c(F)cc6[nH]ncc56)c(C5CC5)cc5c(N(C)[C@H]6CCNC6)nc(OC[C@H]6CCOC6)nc45)cc3)nn2)cc1 (atropisomer, axis not shown) [Example 17] | 0.074 µM | 0.007 µM | 0.008 µM |  | 
Cc1ncsc1-c1ccc([C@H](CO)NC(=O)[C@@H]2C[C@@H](O)CN2C(=O)[C@H](C(C)C)n2cc(-c3ccc(COc4c(-c5c(C)c(F)cc6[nH]ncc56)c(C5CC5)cc5c(O[C@H]6CCNC6)nc(OC6CCOCC6)nc45)cc3)nn2)cc1 (atropisomer, axis not shown) [Example 1] | 0.013 µM | 0.007 µM | 0.009 µM |  | 
COCCCOc1nc(N(C)[C@H]2CCNC2)c2cc(C3CC3)c(-c3c(C)c(F)cc4[nH]ncc34)c(OCc3ccc(-c4cn([C@H](C(=O)N5C[C@H](O)C[C@H]5C(=O)N[C@@H](CO)c5ccc(-c6scnc6C)cc5)C(C)C)nn4)cc3)c2n1 (atropisomer, axis not shown) [Example 39] | 0.037 µM | 0.057 µM | 0.039 µM |  | 
Cc1c(F)cc2[nH]ncc2c1-c1c(C2CC2)cc2c(N(C)[C@H]3CCNC3)nc(OC[C@H]3CCCO3)nc2c1OCc1ccc(-c2cn([C@H](C(=O)N3C[C@H](O)C[C@H]3C(=O)N[C@@H](CO)c3ccc(-n4cncn4)cc3)C(C)C)nn2)cc1 (atropisomer, axis not shown) [Example 41] | 0.029 µM | 0.009 µM | 0.008 µM |  | 
CCn1nccc1-c1ccc([C@H](CO)NC(=O)[C@@H]2C[C@@H](O)CN2C(=O)[C@H](C(C)C)n2cc(-c3ccc(COc4c(-c5c(C)c(F)cc6[nH]ncc56)c(C5CC5)cc5c(N(C)[C@H]6CCNC6)nc(OC[C@H]6CCCO6)nc45)cc3)nn2)cc1 (atropisomer, axis not shown) [Example 29] | 0.02 µM | 0.006 µM | 0.007 µM |  | 
Cc1ncsc1-c1ccc([C@H](CO)NC(=O)[C@@H]2C[C@@H](O)CN2C(=O)[C@H](C(C)C)n2cc(-c3ccc(COc4c(-c5c(C)c(F)cc6[nH]ncc56)c(C5CC5)cc5c(N(C)[C@H]6CCNC6)nc(OC6CCOCC6)nc45)cc3)nn2)cc1 (atropisomer, axis not shown) [Example 8] | 0.018 µM | 0.02 µM | 0.016 µM |  | 
Cc1ncsc1-c1ccc([C@H](CO)NC(=O)[C@@H]2C[C@@H](O)CN2C(=O)[C@H](C(C)C)n2cc(-c3ccc(COc4c(-c5c(C)c(F)cc6[nH]ncc56)c(C5CC5)cc5c(N(C)[C@H]6CCNC6)nc(OC[C@H](C)F)nc45)cc3)nn2)cc1 (atropisomer, axis not shown) [Example 35] | 0.063 µM | 0.012 µM | 0.009 µM |  | 
CO[C@@H](C)COc1nc(N(C)[C@H]2CCNC2)c2cc(C3CC3)c(-c3c(C)c(F)cc4[nH]ncc34)c(OCc3ccc(-c4cn([C@H](C(=O)N5C[C@H](O)C[C@H]5C(=O)N[C@@H](CO)c5ccc(-c6ocnc6C)cc5)C(C)C)nn4)cc3)c2n1 (atropisomer, axis not shown) [Example 14] | 0.02 µM | 0.004 µM | 0.004 µM |  | 
CCn1nccc1-c1ccc([C@H](CO)NC(=O)[C@@H]2C[C@@H](O)CN2C(=O)[C@H](C(C)C)n2cc(-c3ccc(COc4c(-c5c(C)c(F)cc6[nH]ncc56)c(C5CC5)cc5c(N(C)[C@H]6CCNC6)nc(OC[C@H]6CCCO6)nc45)cc3)nn2)nc1 (atropisomer, axis not shown) [Example 32] | 0.051 µM | 0.037 µM | 0.024 µM |  | 

Results, then the compound that gave them:

DC50 (KRAS G12D protein) | IC50 [1, 3] | IC50 ([2]; Homo sapiens, ASPC1, 144 h) | IC50 ([1]; AsPC-1 cells) | IC50 [2] | Structure (SMILES)
0.026 µM | 0.022 µM | 0.015 µM |  |  | CO[C@@H](CF)COc1nc(N(C)[C@H]2CCNC2)c2cc(C3CC3)c(-c3c(C)c(F)cc4[nH]ncc34)c(OCc3ccc(-c4cn([C@H](C(=O)N5C[C@H](O)C[C@H]5C(=O)N[C@@H](CO)c5ccc(-c6scnc6C)cc5)C(C)C)nn4)cc3)c2n1 (atropisomer, axis not shown) [Example 47]
0.034 µM | 0.005 µM | 0.007 µM |  |  | CO[C@@H](C)COc1nc(N2CCNCC2)c2cc(C3CC3)c(-c3c(C)c(F)cc4[nH]ncc34)c(OCc3ccc(-c4cn([C@H](C(=O)N5C[C@H](O)C[C@H]5C(=O)N[C@@H](CO)c5ccc(-c6scnc6C)cc5)C(C)C)nn4)cc3)c2n1 (atropisomer, axis not shown) [Example 54]
0.028 µM |  |  | 0.017 µM | 0.073 µM | CO[C@@H](C)COc1cc(N(C)[C@H]2CCNC2)c2cc(C3CC3)c(-c3c(C)c(F)cc4[nH]ncc34)c(OCc3ccc(-c4cn([C@H](C(=O)N5C[C@H](O)C[C@H]5C(=O)N[C@@H](CO)c5ccc(-c6scnc6C)cc5)C(C)C)nn4)cc3)c2n1 [Example 56]
0.041 µM | 0.007 µM | 0.006 µM |  |  | CO[C@H](COc1nc(N(C)[C@H]2CCNC2)c2cc(C3CC3)c(-c3c(C)c(F)cc4[nH]ncc34)c(OCc3ccc(-c4cn([C@H](C(=O)N5C[C@H](O)C[C@H]5C(=O)N[C@@H](CO)c5ccc(-c6scnc6C)cc5)C(C)C)nn4)cc3)c2n1)C(F)F (atropisomer, axis not shown) [Example 43]
0.011 µM | 0.004 µM | 0.004 µM |  |  | CO[C@@H](C)COc1nc(O[C@@H]2CCNC2)c2cc(C3CC3)c(-c3c(C)c(F)cc4[nH]ncc34)c(OCc3ccc(-c4cn([C@H](C(=O)N5C[C@H](O)C[C@H]5C(=O)N[C@@H](CO)c5ccc(-c6scnc6C)cc5)C(C)C)nn4)cc3)c2n1 (atropisomer, axis not shown) [Example 52]
0.091 µM | 0.006 µM | 0.004 µM |  |  | Cc1ncsc1-c1ccc([C@H](CO)NC(=O)[C@@H]2C[C@@H](O)CN2C(=O)[C@H](C(C)C)n2cc(-c3ccc(COc4c(-c5c(C)c(F)cc6[nH]ncc56)c(C5CC5)cc5c(N(C)[C@H]6CCNC6)nc(OC[C@@H](C)C(F)F)nc45)cc3)nn2)cc1 [Example 42]
0.027 µM | 0.016 µM | 0.015 µM |  |  | CO[C@@H](C)COc1nc(N(C)[C@H]2CCNC2)c2cc(C3CC3)c(-c3c(C)c(F)cc4[nH]ncc34)c(OCc3ccc(-c4cn([C@H](C(=O)N5C[C@H](O)C[C@H]5C(=O)N[C@@H](CO)c5ccc(-c6scnc6C)cc5)C(C)C)nn4)nc3)c2n1 (atropisomer, axis not shown) [Example 45]
0.043 µM | 0.031 µM | 0.017 µM |  |  | CO[C@@H](C)COc1nc(N(C)[C@H]2CCNC2)c2cc(C3CC3)c(-c3c(C)c(F)cc4[nH]ncc34)c(OCc3ccc(-c4cn([C@H](C(=O)N5C[C@H](O)C[C@H]5C(=O)N[C@@H](CO)c5ccc(-c6scnc6C)cc5)C(C)C)nn4)c(F)c3)c2n1 (atropisomer, axis not shown; (M)) [Example 44]
